Experimental data published in patent US20110190253A1, “METHOD FOR TREATING TUBERCULOSIS” (priority 2008, published 2011).

Tests used:
M. tuberculosis H37Rv = assay: minimum inhibitory concentration (MIC) in 7H9 medium at 37° C.; type: cell-based; details: for effect of addition of clavulanate on the MIC value: absence vs presence of 2.5 μg ml^−1 clavulanate, data not shown
[1] = tested on: M. tuberculosis in viable but nonreplicative (NRP) state; assay: Wayne model, nonreplicative (NRP2) cultures, viability by intracellular ATP and CFUs; type: cell-based; details: for reduction of viability (intracellular ATP, CFUs): combination with clavulanate, anaerobic chamber, 1 week and 2 weeks, data not shown; for kill over a 2-week exposure time: meropenem in combination with clavulanate, metronidazole as control compound
[2] = tested on: M. tuberculosis Erdman strain; assay: broth microdilution in 7H9 broth, 96 well plates, M. tuberculosis growth after 1 week of incubation; type: cell-based; details: one week of incubation
BlaC = BlaC (Mycobacterium tuberculosis, UniProt P9WKD3); assay: rate of hydrolysis by BlaC; type: biochemical, M. tuberculosis
[3] = tested on: M. tuberculosis Erdman strain; assay: MIC against Erdman strain; type: cell-based; details: Mycobacterium tuberculosis, read-out: MIC value
[4] = at any concentration of clavulanate (0.0.5, 1 and 2 μg/ml)

Sequence of BlaC (P9WKD3 35-307): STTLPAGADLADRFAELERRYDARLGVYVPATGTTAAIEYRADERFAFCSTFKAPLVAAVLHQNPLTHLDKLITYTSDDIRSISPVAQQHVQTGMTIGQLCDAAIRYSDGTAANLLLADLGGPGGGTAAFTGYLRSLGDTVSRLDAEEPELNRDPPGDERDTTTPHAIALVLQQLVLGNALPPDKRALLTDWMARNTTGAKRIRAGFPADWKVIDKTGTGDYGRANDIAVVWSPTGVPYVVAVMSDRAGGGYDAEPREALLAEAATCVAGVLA

## CC1(C)S[C@@H]2[C@H](NC(=O)[C@H](N)c3ccc(O)cc3)C(=O)N2[C@H]1C(=O)O [amoxicillin]
M. tuberculosis H37Rv
  effect of addition of clavulanate on the MIC value: only a modest effect
[1]
  reduction of viability (intracellular ATP, CFUs): effective in reducing viability
[2]; 4 μg/ml of amoxicillin and 1-2 μg/ml clavulanate
  inhibition of M. tuberculosis growth: Modest inhibition

## CC1(C)S[C@@H]2[C@H](NC(=O)[C@H](N)c3ccccc3)C(=O)N2[C@H]1C(=O)O [ampicillin]
M. tuberculosis H37Rv
  effect of addition of clavulanate on the MIC value: only a modest effect

## CC(C)(O/N=C(\C(=O)N[C@@H]1C(=O)N2C(C(=O)[O-])=C(C[n+]3ccccc3)CS[C@H]12)c1csc(N)n1)C(=O)O [ceftazidime]
[2]; [4]
  inhibition of M. tuberculosis growth: no inhibition

## CO/N=C(\C(=O)N[C@@H]1C(=O)N2C(C(=O)O)=C(COC(N)=O)CS[C@H]12)c1ccco1 [cefuroxime]
[1]
  reduction of viability (intracellular ATP, CFUs): effective in reducing viability
[2]; 2 μg/ml cefuroxime and 2 μg/ml clavulanate
  inhibition of M. tuberculosis growth: Modest inhibition

## C[C@@H](O)[C@H]1C(=O)N2C(C(=O)O)=C(S[C@@H]3CN[C@H](C(=O)N(C)C)C3)[C@H](C)[C@H]12 [meropenem]
M. tuberculosis H37Rv; 7H9 medium, 37° C., 2.5 μg ml^−1 clavulanate
  MIC value in the presence of clavulanate: 0.32 µg/mL
M. tuberculosis H37Rv; Mycobacterium tuberculosis, with clavulanate, as restated
  MIC: ≤ 1 µg/mL
BlaC
  rate of hydrolysis by BlaC: low
[1]
  reduction of viability (intracellular ATP, CFUs): more pronounced
  kill over a 2-week exposure time: more than a log kill
[2]; 1 μg/ml meropenem in combination with 1 μg/ml clavulanate
  M. tuberculosis growth: No M. tuberculosis growth
[3]
  MIC: ≤ 1 µg/mL

## Cc1ncc([N+](=O)[O-])n1CCO [metronidazole]
[1]
  kill over a 2-week exposure time: comparable

## CCN1CCN(C(=O)N[C@@H](C(=O)N[C@@H]2C(=O)N3[C@@H]2SC(C)(C)[C@@H]3C(=O)O)c2ccccc2)C(=O)C1=O [piperacillin]
[2]; [4]
  inhibition of M. tuberculosis growth: no inhibition
